Data reported in patent US20090010873A1, “Methods of Cell Therapy, Neurogenesis and Oligodendrogenesis” (YEDA RESEARCH AND DEVELOPMENT CO. LTD., priority 2004, published 2009).

Key:
microglia = assay: TNF-α and IGF-I expression in treated microglia (RT-PCR, Q-PCR, immunocytochemistry); type: cell-based, mouse
Procedure: (v) RNA purification, cDNA synthesis, and reverse-transcription PCR analysis. Cells were lysed with TRI reagent (MRC, Cincinnati, Ohio), and total cellular RNA was purified from lysates using the RNeasy kit (Qiagen, Hilden, Germany) according to the manufacturer's instructions. Residual genomic DNA was removed during the purification process by incubation with RNase-free DNase (Qiagen). RNA was stored in RNase-free water (Qiagen) at −80° C. RNA (1 μg) was converted to cDNA using SuperScript II ([…], Madison, Wis.), as recommended by the manufacturer. The cDNA mixture was diluted 1:5 with PCR-grade water.
We assayed the expression of specific mRNAs using semi-quantitative reverse transcription PCR(RT-PCR) with selected gene-specific primer pairs, using OLIGO v6.4 (Molecular Biology Insights, Cascade, Colo.).
The RT-PCR reactions were carried out using 1 μg of cDNA, […] of each primer, and ReadyMix PCR Master Mix (ABgene, Epsom, UK) in 30-μl reactions. PCR reactions were carried out in an Eppendorf PCR system with cycles (usually 25-30) of 95° C. for 30 s, 60° C. for 1 min, 72° C. for 1 min, and 72° C. for 5 min, and then kept at 4° C. As an internal standard for the amount of cDNA synthesized, we used β-actin mRNA. PCR products were subjected to agarose gel analysis and visualized by ethidium bromide staining. Signals were quantified using a Gel-Pro analyzer 3.1 (Media Cybernetics).
(xxiv) Real-time quantitative PCR analysis. Total cellular RNA purification and cDNA synthesis was performed as described in section (v) of Example 1 above. We assayed the expression of specific mRNAs using real-time quantitative PCR (Q-PCR) with selected gene-specific primer pairs. Q-PCR reactions were performed with a high-speed thermal cycler (LightCycler; Roche Diagnostics), and the product was detected by FastStart Master SYBR Green I (Roche Molecular Biochemicals) according to the manufacturer's instructions. The amplification cycle was 95° C. for 10 s, 60° C. for 5 s, and 72° C. for 10 s. The primers used were: […]

[1] = tested on: neural progenitor cells (NPCs); assay: NPCs co-cultured with microglia pre-activated by aggregated Aβ and cytokines (β-III-tubulin); type: cell-based, mouse; details: 10 days co-culture; Aβ 5 μM, IFN-γ 10 ng/ml
Procedure: (xlvi) Reagents. Recombinant mouse IFN-γ and IL-4 (both containing endotoxin at a concentration below 0.1 ng/μg cytokine) were obtained from R&D Systems (Minneapolis, Minn.). β-amyloid peptides [amyloid protein fragment 1-40 and 1-42 (Aβ1-40/1-42)] were purchased from Sigma-Aldrich, St. Louis, Mo. The Aβ peptides were dissolved in endotoxin-free water, and Aβ aggregates were formed by incubation of Aβ, as described (Ishii et al., 2000).
(li) Neural progenitor cell culture. Coronal sections (2 mm thick) of tissue containing the subventricular zone of the lateral ventricle were obtained from the brains of adult C57B1/6J mice. The tissue was minced and then incubated for digestion at 37° C., 5% CO2 for 45 min in Earle's balanced salt solution containing 0.94 mg/ml papain (Worthington, Lakewood, N.J.) and 0.18 mg/ml of L-cysteine and EDTA. After centrifugation at 110×g for 15 min at room temperature, the tissue was mechanically dissociated by pipette trituration. Cells obtained from single-cell suspensions were plated (3500 cells/cm^2) in 75-cm^2 Falcon tissue-culture flasks (BD Biosciences, San Diego, Calif.), in NPC-culturing medium [Dulbecco's modified Eagles's medium (DMEM)/F12 medium (Gibco/Invitrogen, Carlsbad, Calif.) containing 2 mM L-glutamine, 0.6% glucose, 9.6 μg/ml putrescine, 6.3 ng/ml progesterone, 5.2 ng/ml sodium selenite, 0.02 mg/ml insulin, 0.1 mg/ml transferrin, 2 μg/ml heparin (all from Sigma-Aldrich, Rehovot, Israel), fibroblast growth factor-2 (human recombinant, 20 ng/ml), and epidermal growth factor (human recombinant, 20 ng/ml; both from Peprotech, Rocky Hill, N.J.)]. Spheres were passaged every 4-6 days and replated as single cells. Green fluorescent protein (GFP)-expressing NPCs were obtained as previously described (Pluchino et al., 2003).
(lii) Primary microglial culture. Brains from neonatal (P0-P1) C57B1/6J mice were stripped of their meninges and minced with scissors under a dissecting microscope (Zeiss, Stemi DV4, Germany) in Leibovitz-15 medium (Biological Industries, Kibbutz Beit Ha-Emek, Israel). […]

**Q.** Which “expression of IGF-I in microglia (Q-PCR)” value (microglia; 10 ng/ml, 24 h) does the source give for IFN-γ here?
**A.** The value was “no effect”.

**Q.** What about the “expression of IGF-I in microglia (Q-PCR)” value (microglia; 100 ng/ml, 24 h) of the same substance?
**A.** The value was “completely arrested”.

**Q.** What about the “IGF-I production/expression by microglia” value (microglia; RT-PCR time course and immunocytochemistry, IL-4 10 ng/ml, IFN-γ 20 ng/ml, LPS 100 ng/ml) of the same substance?
**A.** Its value is “down-regulation of IGF-I”.

**Q.** And the “TNF-α production by microglia” value (microglia; RT-PCR time course, IFN-γ 20 ng/ml)?
**A.** The value was “transient increase”.

**Q.** What about the “TNF-α production in microglia (Q-PCR)” value (microglia; high-dose IFN-γ (100 ng/ml), 24 h) of the same substance?
**A.** Its value is “induced”.

**Q.** What about the “GFP^+/βIIIT^+ cells (neurogenesis) with microglia activated by the agent” value [1] of the same substance?
**A.** Its value is “dramatic”.
